The target in this experiment is T1, human cannabinoid CB2 receptor (Homo sapiens, UniProt P34972).
T1 construct: expressed in transfected cells; host or cells: Saccharomyces cerevisiae strain MMY23
Nature of the experiment: Cannabinoid CB2 receptor agonist activity, yeast reporter assay (FDGlu fluorescence).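 For Emax: 100% equals maximal response of reference agonist HU210.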 It is filed as cell-based. Particulars: for Emax: read-out: efficacy value (Emax) at the cloned human cannabinoid CB2 receptor. The protocol:
The cannabinoid CB2 receptor agonist activity of the compounds of formula (I) was determined in accordance with the following experimental method.
Yeast (Saccharomyces cerevisiae) cells expressing the human cannabinoid CB2 receptor were generated by integration of an expression cassette into the ura3 chromosomal locus of yeast strain MMY23. This cassette consisted of DNA sequence encoding the human CB2 receptor flanked by the yeast GPD promoter to the 5′ end of CB2 and a yeast transcriptional terminator sequence to the 3′ end of CB2. MMY23 expresses a yeast/mammalian chimeric G-protein alpha subunit in which the C-terminal 5 amino acids of Gpa1 are replaced with the C-terminal 5 amino acids of human Gαi3 (as described in Brown et al. (2000), Yeast 16:11-22). Cells were grown at 30° C. in liquid Synthetic Complete (SC) yeast media (Guthrie and Fink (1991), Methods in Enzymology, Vol. 194) lacking uracil, tryptophan, adenine and leucine to late logarithmic phase (approximately 6 OD600/ml).
Agonists were prepared as 10 mM stocks in DMSO. […] Agonist solutions in DMSO (1% final assay volume) were transferred into black, clear bottom, microtitre plates from NUNC (96- or 384-well). […] This mixture (50 ul per well for 384-well plates, 200 ul per well for 96-well plates) was added to agonist in the assay plates (Multidrop 384, Labsystems). After incubation at 30° C. for 24 hours, fluorescence resulting from degradation of FDGlu to fluorescein due to exoglucanase, an endogenous yeast enzyme produced during agonist-stimulated cell growth, was determined using a Spectrofluor microtitre plate reader (Tecan; excitation wavelength: 485 nm; emission wavelength: 535 nm). Fluorescence was plotted against compound concentration and iteratively curve fitted using a four parameter fit to generate a concentration effect value.
where Max[compound X] and Min[compound X] are the fitted maximum and minimum respectively from the concentration effect curve for compound X, and Max[HU210] and Min[HU210] are the fitted maximum and minimum respectively from the concentration effect curve for (6aR,10aR)-3-(1,1′-Dimethylheptyl)-6a,7,10,10a-tetrahydro-1-hydroxy-6,6-dimethyl-6H-dibenzo[b,d]pyran-9-methanol (HU210; available from Tocris). Equieffective molar ratio (EMR) values were calculated from the equation EMR=EC50 [compound X]/EC50 [HU210]
Where EC50 [compound X] is the EC50 of compound X and EC50 [HU210] is the EC50 of HU210.

T1 sequence (P34972 whole entry): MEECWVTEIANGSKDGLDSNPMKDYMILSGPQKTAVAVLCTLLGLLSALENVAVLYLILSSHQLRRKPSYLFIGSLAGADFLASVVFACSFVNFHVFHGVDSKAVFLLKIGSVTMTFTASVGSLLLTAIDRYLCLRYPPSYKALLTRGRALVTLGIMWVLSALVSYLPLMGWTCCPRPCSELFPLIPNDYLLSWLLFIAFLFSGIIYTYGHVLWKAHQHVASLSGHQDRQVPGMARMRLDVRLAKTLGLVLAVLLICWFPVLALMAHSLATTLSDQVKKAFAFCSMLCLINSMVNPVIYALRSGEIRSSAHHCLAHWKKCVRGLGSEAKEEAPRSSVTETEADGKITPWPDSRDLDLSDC

Take `CC(C)c1cc(Nc2cccc(F)c2)ncc1C(=O)NCC1CCC1` [Example 34, N-Cyclobutylmethyl-6-(3-fluoro-phenylamino)-4-isopropyl-nicotinamide]: the EC50 (in general, the concentration at which the effect is half-maximal) was < 300 nM and the Emax (commonly the maximal effect, on the per cent scale that the assay sets) was > 50%.

For `CC(C)c1cc(Nc2cccc(C(F)(F)F)c2)ncc1C(=O)NCC1CCC1` [Example 35, N-Cyclobutylmethyl-6-(3-trifluoromethyl-phenylamino)-4-], the EC50 was < 300 nM and the Emax was > 50%.

As to `CC(C)c1cc(Nc2cccc(C#N)c2)ncc1C(=O)NCC1CCC1` [Example 36, 6-(3-Cyano-phenylamino)-N-cyclobutylmethyl-4-isopropyl-nicotinamide], the half-maximal effective concentration (EC50) was < 300 nM and the maximal effect (Emax) was > 50%.

For `Cc1cccc(Nc2cc(C(C)C)c(C(=O)NCC3CCC3)cn2)c1` [Example 37, N-Cyclobutylmethyl-4-isopropyl-6-m-tolylamino-nicotinamide], the Emax was > 50%.

For the compound `COc1cccc(Nc2cc(C(C)C)c(C(=O)NCC3CCC3)cn2)c1` [Example 38, N-Cyclobutylmethyl-4-isopropyl-6-(3-methoxy-phenylamino)-nicotinamide], the concentration for a half-maximal effect (EC50) is < 300 nM and the maximum response (Emax) is > 50%.

In the case of `CC(C)c1cc(Nc2cccc(F)c2)ncc1C(=O)NCC1CCOCC1` [Example 39, 6-(3-Fluoro-phenylamino)-4-isopropyl-N-(tetrahydro-pyran-4-ylmethyl)-nicotinamide], the maximum response (Emax) is > 50%.

Consider `COc1cccc(Nc2cc(C(C)C)c(C(=O)NCC3CCOCC3)cn2)c1` [Example 41, 4-Isopropyl-6-(3-methoxy-phenylamino)-N-(tetrahydro-pyran-4-ylmethyl)-nicotinamide], for which the Emax was > 50%.

For the compound `CC(C)c1cc(N(C)c2ccc(Cl)c(Cl)c2)ncc1C(=O)NCC1CCOCC1` [Example 44, 6-[(3,4-Dichloro-phenyl)-methyl-amino]-4-isopropyl-N-(tetrahydro-pyran-4-ylmethyl)-nicotinamide], the Emax was > 50%.

As to `CC(C)c1cc(Nc2cccc(Cl)c2)ncc1C(=O)NC1CCC1` [Example 50, 6-(3-Chloro-phenylamino)-N-cyclobutyl-4-isopropyl-nicotinamide], the 50% effective concentration (EC50) was < 300 nM and the Emax was > 50%.

For the compound `CC(C)c1cc(Nc2cccc(Cl)c2)ncc1C(=O)NCC1CC1` [Example 51, 6-(3-Chloro-phenylamino)-N-cyclopropylmethyl-4-isopropyl-nicotinamide], the concentration giving a half-maximal response (EC50) is < 300 nM and the Emax was > 50%.

For the compound `CCC(CC)CNC(=O)c1cnc(Nc2cccc(Cl)c2)cc1C(C)C` [Example 52, 6-(3-Chloro-phenylamino)-N-(2-ethyl-butyl)-4-isopropyl-nicotinamide], the maximal effect (Emax) was > 50%.

Regarding `CC(C)c1cc(Nc2cccc(Cl)c2)ncc1C(=O)NC1CCCCC1` [Example 53, 6-(3-Chloro-Phenylamino)-N-cyclohexyl-4-isopropyl-nicotinamide], the 50% effective concentration (EC50) was < 300 nM and the Emax was > 50%.

For the compound `CC(C)c1cc(Nc2cccc(Cl)c2)ncc1C(=O)NCC1(O)CCCCC1` [Example 54, 6-(3-Chloro-phenylamino)-N-(1-hydroxy-cyclohexylmethyl)-4-isopropyl-nicotinamide], the EC50 was < 300 nM and the Emax was > 50%.

Regarding `CC(C)c1cc(Nc2cccc(Cl)c2)ncc1C(=O)N1CCCCC1` [Example 55, 1-[6-(3-Chloro-phenylamino)-4-isopropyl-pyridin-3-yl]-1-piperidin-1-yl-methanone], the half-maximal effective concentration (EC50) is < 300 nM and the maximal response (Emax) was > 50%.

Turning to `COCCNC(=O)c1cnc(Nc2cccc(Cl)c2)cc1C(C)C` [Example 57, 6-(3-Chloro-phenylamino)-4-isopropyl-N-(2-methoxy-ethyl)-nicotinamide], the maximal response (Emax) was > 50%.

Take `CC(C)c1cc(Nc2cccc(Cl)c2)ncc1C(=O)NC1CCOCC1` [Example 58, 6-(3-Chloro-phenylamino)-4-isopropyl-N-(tetrahydro-pyran-4-yl)-nicotinamide]: the maximum response (Emax) was > 50%.

In the case of `CC(C)(C)c1cc(Nc2cccc(Cl)c2)ncc1C(=O)NCC1CCCCC1` [Example 69, 4-tert-Butyl-6-(3-chloro-phenylamino)-N-cyclohexylmethyl-nicotinamide], the EC50 was < 300 nM and the Emax is > 50%.

Turning to `CC(C)(C)c1cc(Nc2ccc(Cl)cc2Cl)ncc1C(=O)NCC1CCCCC1` [Example 70, 4-tert-Butyl-6-(2,4-dichloro-phenylamino)-N-cyclohexylmethyl-nicotinamide], the EC50 is < 300 nM and the Emax was > 50%.

For the compound `CC(C)(C)c1cc(Nc2cccc(Cl)c2)ncc1C(=O)NCC1CCOCC1` [Example 71, 4-tert-Butyl-6-(3-phenylamino)-N-(tetrahydro-pyran-4-ylmethyl)-nicotinamide], the EC50 was < 300 nM and the maximal response (Emax) is > 50%.

With `CC(C)(C)c1cc(Nc2cccc(F)c2)ncc1C(=O)NCC1CCOCC1` [Example 72, 4-tert-Butyl-6-(3-fluoro-phenylamino)-N-(tetrahydro-pyran-4-ylmethyl)-nicotinamide], the concentration giving a half-maximal response (EC50) was < 300 nM and the Emax was > 50%.

As to `CC(C)c1cc(Nc2cc(Cl)cc(Cl)c2)ncc1C(=O)NCC1CCOCC1` [Example 75, 6-(3,5-Dichloro-phenylamino)-4-isopropyl-N-(tetrahydro-pyran-4-ylmethyl)-nicotinamide], the EC50 is < 300 nM and the Emax was > 50%.

For `CC(C)c1cc(Nc2cc(Cl)ccc2F)ncc1C(=O)NCC1CCOCC1` [Example 76, 6-(5-Chloro-2-fluoro-phenylamino)-4-isopropyl-N-(tetrahydro-pyran-4-ylmethyl)-nicotinamide], the concentration giving a half-maximal response (EC50) was < 300 nM and the maximum response (Emax) was > 50%.

For `CC(C)c1cc(Nc2ccc(F)c(Cl)c2)ncc1C(=O)NCC1CCOCC1` [Example 77, 6-(3-Chloro-4-fluoro-phenylamino)-4-isopropyl-N-(tetrahydro-pyran-4-ylmethyl)-nicotinamide], the EC50 is < 300 nM and the Emax was > 50%.

On to `CC(C)c1cc(Nc2ccc(OC(F)(F)F)c(Cl)c2)ncc1C(=O)NCC1CCOCC1` [Example 78, 6-(3-Chloro-4-trifluoromethoxy-phenylamino)-4-isopropyl-N-(tetrahydro-pyran-4-ylmethyl)-nicotinamide], for which the EC50 was < 300 nM and the maximal effect (Emax) was > 50%.

Consider `CC(C)c1cc(Nc2ccc(C#N)c(Cl)c2)ncc1C(=O)NCC1CCOCC1` [Example 79, 6-(3-Chloro-4-cyano-phenylamino)-4-isopropyl-N-(tetrahydro-pyran-4-ylmethyl) nicotinamide], for which the Emax is > 50%.

In the case of `CC(C)c1cc(Nc2cc(F)cc(C(F)(F)F)c2)ncc1C(=O)NCC1CCOCC1` [Example 80, 6-(3-Fluoro-5-trifluoromethyl-phenylamino)-4-isopropyl-N-(tetrahydro-pyran-4-ylmethyl) nicotinamide], the EC50 is < 300 nM and the Emax was > 50%.

In the case of `CC(C)c1cc(Nc2cccc(C(F)(F)F)c2F)ncc1C(=O)NCC1CCOCC1` [Example 81, 6-(2-Fluoro-3-trifluoromethyl-isopropyl-N-phenylamino)-4-(tetrahydro-pyran-4-ylmethyl) nicotinamide], the Emax was > 50%.

(Values after US20060240048A1 (priority 2002, published 2006).)
